Measurements published in patent US20060069132A1, “Azolecarboxamide herbicides” (priority 2004, published 2006).

Legend:
[1] = tested on: barnyardgrass; test: Test B flooded paddy test; type: in vivo, Echinochloa crus-galli; settings: 1000 g ai/ha, visual rating, scale 0 to 100 (0 no effect, 100 complete control), 13 to 15 days
Procedure, shortened: (§1)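 Read-out: visual comparison with controls, scored 0 to 100, where 100 means complete control and 0 no effect. Formulated chemicals were applied postemergence to plants 2–18 cm tall (1- to 4-leaf), or to flooded-paddy plants at the 2-leaf stage, then held 13 to 15 days under glass.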

[2] = tested on: giant foxtail; test: Test B pre-/postemergence herbicide test; type: in vivo, Setaria faberi; settings: for Foxtail, Giant plant response rating: postemergence, visual rating, scale 0 (no effect) to 100 (complete control)
Procedure, shortened: (§2)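 Evaluation is visual, comparing treated with control plants on a scale where 0 means no effect and 100 means full control. Treatments were preemergence, or postemergence on seedlings 2–18 cm tall, and held 13–15 days in the greenhouse.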

[3] = tested on: small flower umbrella sedge; test: Test B flooded paddy test; type: in vivo, Cyperus difformis; settings: 1000 g ai/ha, visual rating, scale 0 to 100 (0 no effect, 100 complete control), 13 to 15 days
Procedure, shortened: as §1

[4] = tested on: smallflower umbrella sedge; test: Test C flooded paddy test; type: in vivo, Cyperus difformis
[5] = tested on: corn; test: Test B pre-/postemergence herbicide test; type: in vivo, Zea mays; settings: for Corn plant response rating: postemergence, visual rating, scale 0 (no effect) to 100 (complete control)
Procedure, shortened: as §2

[6] = tested on: large crabgrass; test: Test B pre-/postemergence herbicide test; type: in vivo, Digitaria sanguinalis; settings: for Crabgrass, Large plant response rating: postemergence, visual rating, scale 0 (no effect) to 100 (complete control)
Procedure, shortened: as §2

[7] = tested on: barnyardgrass; test: Test B pre-/postemergence herbicide test; type: in vivo, Echinochloa crus-galli; settings: for Barnyardgrass plant response rating: postemergence, visual rating, scale 0 (no effect) to 100 (complete control)
Procedure, shortened: (§3)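 Pre: seeds sown, then sprayed. Post: 1–4-leaf plants (2–18 cm) sprayed at the same time. Paddy: flooded, treated at 2-leaf stage. Formulation: non-phytotoxic solvent with surfactant. Greenhouse 13–15 days; visual 0–100 score relative to controls.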

[8] = tested on: rice; test: Test B flooded paddy test; type: in vivo, Oryza sativa; settings: 1000 g ai/ha, visual rating, scale 0 to 100 (0 no effect, 100 complete control), 13 to 15 days
Procedure, shortened: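 Each value is a visual 0–100 response rating taken against controls 13 to 15 days after treatment in the greenhouse. Plants received formulated chemical postemergence at the 1- to 4-leaf stage or, in flooded paddy, at the 2-leaf stage.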

[9] = tested on: ducksalad; test: Test B flooded paddy test; type: in vivo, Heteranthera limosa; settings: 1000 g ai/ha, visual rating, scale 0 to 100 (0 no effect, 100 complete control), 13 to 15 days
Procedure, shortened: as §1

[10] = tested on: rice; test: Test B pre-/postemergence herbicide test; type: in vivo, Oryza sativa; settings: preemergence
Procedure, shortened: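 Plants compared with untreated controls 13–15 days post-treatment and given a visual 0–100 injury score. Applications: preemergence to seeds; postemergence at 1- to 4-leaf (2–18 cm); paddy species flooded, 2-leaf stage. Vehicle non-phytotoxic, surfactant included.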

[11] = tested on: rice; test: Test C flooded paddy test; type: in vivo, Oryza sativa
Procedure, shortened: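 Injury scored visually against controls on a 0 (no effect) to 100 (complete control) scale, 12 to 14 days after treatment in greenhouse. Flooded paddy plants treated at 2-leaf stage; postemergence plants at 1- to 4-leaf stage, 2 to 18 cm tall.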

[12] = tested on: wheat; test: Test B postemergence herbicide test; type: in vivo, Triticum aestivum; set-up: key to Wheat plant response rating: 0 = no effect, 100 = complete control; settings: postemergence, visual rating, scale 0 (no effect) to 100 (complete control)
Procedure, shortened: (§4)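 Postemergence plants were sprayed with formulated test chemicals at 2 to 18 cm height (1- to 4-leaf stage); paddy species were grown to the 2-leaf stage. After 13 to 15 days in a greenhouse, injury was rated visually against untreated controls on a 0–100 scale (0 = no effect, 100 = complete control).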

[13] = tested on: barnyardgrass; test: Test C flooded paddy test; type: in vivo, Echinochloa crus-galli
Procedure, shortened: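 Postemergence sprays applied to plants 2 to 18 cm tall (1- to 4-leaf stage); paddy species grown to 2-leaf stage under flooding. After 12 to 14 days in greenhouse, visual rating versus untreated controls on 0–100 scale (0 no effect, 100 complete control).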

[14] = tested on: morningglory; test: Test B pre-/postemergence herbicide test; type: in vivo, Ipomoea coccinea; settings: for Morningglory plant response rating: postemergence, visual rating, scale 0 (no effect) to 100 (complete control)
Procedure, shortened: as §3

[15] = tested on: pigweed; test: Test B pre-/postemergence herbicide test; type: in vivo, Amaranthus retroflexus; settings: for Pigweed plant response rating: postemergence, visual rating, scale 0 (no effect) to 100 (complete control)
Procedure, shortened: as §2

[16] = tested on: blackgrass; test: Test B postemergence herbicide test; type: in vivo, Alopecurus myosuroides; settings: postemergence, visual rating, scale 0 (no effect) to 100 (complete control)
Procedure, shortened: as §1

[17] = tested on: lambsquarters; test: Test B pre-/postemergence herbicide test; type: in vivo, Chenopodium album; settings: for Lambsquarters plant response rating: postemergence, visual rating, scale 0 (no effect) to 100 (complete control)
Procedure, shortened: as §2

[18] = tested on: Surinam grass; test: Test B pre-/postemergence herbicide test; type: in vivo, Urochloa decumbens; settings: for Surinam Grass plant response rating: postemergence, visual rating, scale 0 (no effect) to 100 (complete control)
Procedure, shortened: as §2

[19] = tested on: velvetleaf; test: Test B pre-/postemergence herbicide test; type: in vivo, Abutilon theophrasti; settings: for Velvetleaf plant response rating: postemergence, visual rating, scale 0 (no effect) to 100 (complete control)
Procedure, shortened: as §2

[20] = tested on: cocklebur; test: Test B pre-/postemergence herbicide test; type: in vivo, Xanthium strumarium; settings: for Cocklebur plant response rating: postemergence, visual rating, scale 0 (no effect) to 100 (complete control)
Procedure, shortened: as §3

[21] = tested on: ducksalad; test: Test C flooded paddy test; type: in vivo, Heteranthera limosa
[22] = tested on: wild oat; test: Test B postemergence herbicide test; type: in vivo, Avena fatua; settings: postemergence, visual rating, scale 0 (no effect) to 100 (complete control)
Procedure, shortened: as §4

[23] = 125 g ai/ha, 0 = no effect, 100 = complete control, preemergence
[24] = 500 g ai/ha, visual rating 0-100, 0 no effect, 100 complete control, preemergence
[25] = 62 g ai/ha, scale 0 to 100 (0 no effect, 100 complete control)
[26] = 125 g ai/ha, scale 0 to 100 (0 no effect, 100 complete control)
[27] = 250 g ai/ha, scale of 0 to 100, 0 is no effect, 100 is complete control
[28] = 500 g ai/ha, visual rating after 12 to 14 days, scale 0 to 100 (0 no effect, 100 complete control)

SMILES: CCNC(=O)c1cccc(NC(=O)c2cn(C(C)(C)C)nc2C)c1 [Compound 183]
- Barnyardgrass plant response rating [1]: 60
- Foxtail, Giant plant response rating (0 to 100 scale) [2, 23]: 0
- Plant response rating, Foxtail, Giant [2, 24]: 80
- Foxtail, Giant plant response rating ([2]; 125 g ai/ha): 20
- Foxtail, Giant plant response rating ([2]; 500 g ai/ha): 30
- Sedge, Umbrella plant response rating [3]: 80
- Sedge, Umbrella plant response rating [4, 25]: 0
- Sedge, Umbrella plant response rating [4, 26]: 0
- Sedge, Umbrella plant response rating [4, 27]: 10
- Plant response rating, Sedge, Umbrella [4, 28]: 50
- Corn plant response rating (0 to 100 scale) [5, 23]: 0
- Plant response rating, Corn [5, 24]: 0
- Corn plant response rating ([5]; 125 g ai/ha): 20
- Corn plant response rating ([5]; 500 g ai/ha): 20
- Crabgrass, Large plant response rating (0 to 100 scale) [6, 23]: 10
- Plant response rating, Crabgrass, Large [6, 24]: 90
- Crabgrass, Large plant response rating ([6]; 125 g ai/ha): 20
- Crabgrass, Large plant response rating ([6]; 500 g ai/ha): 30
- Barnyardgrass plant response rating (0 to 100 scale) [7, 23]: 20
- Plant response rating, Barnyardgrass [7, 24]: 70
- Barnyardgrass plant response rating ([7]; 125 g ai/ha): 0
- Barnyardgrass plant response rating ([7]; 500 g ai/ha): 0
- Rice plant response rating [8]: 0
- Ducksalad plant response rating [9]: 70
- Rice plant response rating (0 to 100 scale) ([10]; 125 g ai/ha, 0 = no effect, 100 = complete control): 0
- Plant response rating, Rice ([10]; 500 g ai/ha, visual rating 0-100, 0 no effect, 100 complete control): 80
- Rice plant response rating [11, 25]: 0
- Rice plant response rating [11, 26]: 0
- Rice plant response rating [11, 27]: 0
- Plant response rating, Rice [11, 28]: 0
- Wheat plant response rating ([12]; 125 g ai/ha): 0
- Wheat plant response rating ([12]; 500 g ai/ha): 0
- Barnyardgrass plant response rating [13, 25]: 0
- Barnyardgrass plant response rating ([13]; 125 g ai/ha, scale of 0 to 100, 0 is no effect, 100 is complete control): 0
- Barnyardgrass plant response rating [13, 27]: 0
- Plant response rating, Barnyardgrass [13, 28]: 0
- Morningglory plant response rating (0 to 100 scale) [14, 23]: 10
- Plant response rating, Morningglory [14, 24]: 10
- Morningglory plant response rating ([14]; 125 g ai/ha): 60
- Morningglory plant response rating ([14]; 500 g ai/ha): 70
- Pigweed plant response rating (0 to 100 scale) [15, 23]: 100
- Plant response rating, Pigweed [15, 24]: 100
- Pigweed plant response rating ([15]; 125 g ai/ha): 70
- Pigweed plant response rating ([15]; 500 g ai/ha): 80
- Blackgrass plant response rating ([16]; 125 g ai/ha): 0
- Blackgrass plant response rating ([16]; 500 g ai/ha): 10
- Lambsquarters plant response rating (0 to 100 scale) [17, 23]: 50
- Plant response rating, Lambsquarters [17, 24]: 100
- Lambsquarters plant response rating ([17]; 125 g ai/ha): 70
- Lambsquarters plant response rating ([17]; 500 g ai/ha): 80
- Surinam Grass plant response rating (0 to 100 scale) [18, 23]: 20
- Plant response rating, Surinam Grass [18, 24]: 50
- Surinam Grass plant response rating ([18]; 125 g ai/ha): 0
- Surinam Grass plant response rating ([18]; 500 g ai/ha): 20
- Velvetleaf plant response rating (0 to 100 scale) [19, 23]: 10
- Plant response rating, Velvetleaf [19, 24]: 50
- Velvetleaf plant response rating ([19]; 125 g ai/ha): 40
- Velvetleaf plant response rating ([19]; 500 g ai/ha): 60
- Cocklebur plant response rating (0 to 100 scale) [20, 23]: 0
- Plant response rating, Cocklebur [20, 24]: 0
- Cocklebur plant response rating ([20]; 125 g ai/ha): 50
- Cocklebur plant response rating ([20]; 500 g ai/ha): 90
- Ducksalad plant response rating [21, 25]: 0
- Ducksalad plant response rating [21, 26]: 0
- Ducksalad plant response rating [21, 27]: 10
- Plant response rating, Ducksalad [21, 28]: 20
- Oat, Wild plant response rating ([22]; 125 g ai/ha): 10
- Oat, Wild plant response rating ([22]; 500 g ai/ha): 20
